What was measured:
Type in all cases: cell-based
Phospho-Rb (Ser807/811) = test: Phospho-Retinoblastoma (pRB) Cellular Assay; conditions: Homo sapiens, OVCAR-3, NIH OVCAR3 cells, 24 hours; for IC50: concentration giving 50% response; for Emax: maximum response, reference compound at 10 μM = 100%, read-out: pRB Ymax
In short: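 OVCAR3 cells seeded overnight, then dosed with serial dilutions for 24 h at 37° C. Lysed with kit mix plus phosphatase inhibitor, ≥4 h at room temperature, read on EnVision; 100% response set by reference compound at 10 μM, giving IC50 and Ymax.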

Cyclin E1 = Cyclin E1 (Homo sapiens, UniProt P24864+Q96SW2); test: Cyclin E1 Cellular Degradation Assay (MSD); parameters: endogenous in cells; host or cells: OVCAR3; conditions: for DC50 / Dmax: Cyclin E1 cellular degradation; for Dmax: maximum degradation; for Ratio of GSPT1 DC50/Cyclin E1 DC50: selectivity for degradation of Cyclin E1 over GSPT1
Cyclin E1, sequence (P24864 whole entry): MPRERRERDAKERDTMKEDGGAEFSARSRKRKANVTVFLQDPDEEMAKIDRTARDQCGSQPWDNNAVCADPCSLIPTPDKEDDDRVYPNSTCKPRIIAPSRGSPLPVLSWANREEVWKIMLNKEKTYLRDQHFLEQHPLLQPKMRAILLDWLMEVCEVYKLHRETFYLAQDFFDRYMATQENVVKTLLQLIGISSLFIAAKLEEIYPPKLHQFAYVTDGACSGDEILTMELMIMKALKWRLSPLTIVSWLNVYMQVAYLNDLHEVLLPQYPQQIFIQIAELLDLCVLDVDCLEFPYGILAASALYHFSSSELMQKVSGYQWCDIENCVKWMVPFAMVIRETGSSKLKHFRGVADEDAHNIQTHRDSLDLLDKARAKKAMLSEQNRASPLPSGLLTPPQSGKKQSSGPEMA
Cyclin E1, sequence (Q96SW2 whole entry): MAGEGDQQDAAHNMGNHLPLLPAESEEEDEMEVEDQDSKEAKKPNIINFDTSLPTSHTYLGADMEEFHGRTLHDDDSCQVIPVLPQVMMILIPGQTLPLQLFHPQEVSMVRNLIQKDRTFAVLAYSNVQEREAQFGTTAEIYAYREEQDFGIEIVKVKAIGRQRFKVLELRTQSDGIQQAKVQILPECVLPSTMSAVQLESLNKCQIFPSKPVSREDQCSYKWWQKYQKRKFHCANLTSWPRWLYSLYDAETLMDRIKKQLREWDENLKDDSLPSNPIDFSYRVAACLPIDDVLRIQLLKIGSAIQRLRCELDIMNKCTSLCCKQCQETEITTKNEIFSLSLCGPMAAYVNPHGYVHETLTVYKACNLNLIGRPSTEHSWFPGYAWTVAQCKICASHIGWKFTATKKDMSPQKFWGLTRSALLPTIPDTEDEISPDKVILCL
Cyclin E1, sequence (Q16531 whole entry partner): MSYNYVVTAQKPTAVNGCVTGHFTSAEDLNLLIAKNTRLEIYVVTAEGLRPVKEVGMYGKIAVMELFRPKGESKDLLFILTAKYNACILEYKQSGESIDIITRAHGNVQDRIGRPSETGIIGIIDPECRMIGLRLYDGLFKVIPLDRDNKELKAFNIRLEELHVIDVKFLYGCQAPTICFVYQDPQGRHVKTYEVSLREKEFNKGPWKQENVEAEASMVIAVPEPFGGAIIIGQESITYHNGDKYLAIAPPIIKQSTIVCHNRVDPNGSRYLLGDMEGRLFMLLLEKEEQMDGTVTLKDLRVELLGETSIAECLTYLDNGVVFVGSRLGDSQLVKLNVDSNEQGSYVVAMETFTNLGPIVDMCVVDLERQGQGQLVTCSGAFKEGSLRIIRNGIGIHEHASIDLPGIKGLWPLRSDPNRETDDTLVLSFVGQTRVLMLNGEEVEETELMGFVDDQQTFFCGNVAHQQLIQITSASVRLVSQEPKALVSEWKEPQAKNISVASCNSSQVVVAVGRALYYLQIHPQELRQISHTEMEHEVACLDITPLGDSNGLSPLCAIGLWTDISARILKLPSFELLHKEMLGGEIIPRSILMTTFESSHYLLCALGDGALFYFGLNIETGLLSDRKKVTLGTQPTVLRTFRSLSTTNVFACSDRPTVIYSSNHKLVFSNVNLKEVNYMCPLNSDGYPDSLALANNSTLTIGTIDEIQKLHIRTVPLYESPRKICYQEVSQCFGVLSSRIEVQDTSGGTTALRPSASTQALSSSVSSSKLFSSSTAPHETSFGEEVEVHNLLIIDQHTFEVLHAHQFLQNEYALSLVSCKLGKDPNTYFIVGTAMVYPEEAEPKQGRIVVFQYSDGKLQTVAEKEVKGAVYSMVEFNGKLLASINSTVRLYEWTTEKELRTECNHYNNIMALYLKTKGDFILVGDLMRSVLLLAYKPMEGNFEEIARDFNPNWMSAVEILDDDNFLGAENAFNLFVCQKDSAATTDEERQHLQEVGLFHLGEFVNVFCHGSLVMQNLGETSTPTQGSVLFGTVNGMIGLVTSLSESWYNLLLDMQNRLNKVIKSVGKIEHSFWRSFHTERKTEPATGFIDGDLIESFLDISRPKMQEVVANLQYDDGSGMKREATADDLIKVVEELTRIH
In short: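 OVCAR3 cells treated with compound for 24 h at 37 °C, lysed, and cyclin E1 measured by MSD sandwich immunoassay (rabbit capture, mouse detection anti-CCNE1). Reference degrader at […] defined 110% response; DC50 and Dmax derived from response.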

GSPT1 = GSPT1 (Homo sapiens, UniProt P15170+Q96SW2); test: GSPT1 Cellular Degradation Assay (DF15-GSPT1-ePL); parameters: expressed in transfected cells; conditions: DF15-GSPT1-ePL cells, 20 hours
GSPT1, sequence (P15170 whole entry, the tested form may be a part): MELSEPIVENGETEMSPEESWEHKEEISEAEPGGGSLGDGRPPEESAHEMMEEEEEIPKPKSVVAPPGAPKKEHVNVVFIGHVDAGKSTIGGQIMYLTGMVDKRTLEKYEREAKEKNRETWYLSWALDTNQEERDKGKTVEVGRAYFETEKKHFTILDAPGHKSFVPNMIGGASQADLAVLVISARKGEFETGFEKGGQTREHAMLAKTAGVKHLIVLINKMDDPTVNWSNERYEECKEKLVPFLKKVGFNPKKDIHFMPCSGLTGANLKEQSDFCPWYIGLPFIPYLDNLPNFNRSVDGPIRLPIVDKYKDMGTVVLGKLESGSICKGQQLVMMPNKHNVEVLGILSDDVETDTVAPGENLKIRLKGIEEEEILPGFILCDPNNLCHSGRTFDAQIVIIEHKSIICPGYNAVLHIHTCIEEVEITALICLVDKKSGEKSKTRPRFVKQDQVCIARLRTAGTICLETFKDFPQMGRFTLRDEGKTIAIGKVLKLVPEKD
GSPT1, sequence (Q96SW2 whole entry, the tested form may be a part): as the sequence (Q96SW2 whole entry) above
GSPT1, sequence (Q16531 whole entry partner, the tested form may be a part): as the sequence (Q16531 whole entry partner) above
In short: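 Human DF15 cells co-expressing a GSPT1–ePL fusion were treated with compound in RPMI 1640/10% FBS for 20 h at 37 °C. GSPT1 level was read by enzyme-fragment-complementation luminescence after 60 min with detection reagent. The reference degrader at […] defined 75% response; DC50 and Dmax were reported.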

IC50 (Phospho-Rb (Ser807/811))	DC50 (Cyclin E1)	Dmax (Cyclin E1)	Ratio of GSPT1 DC50/Cyclin E1 DC50 (Cyclin E1)	DC50 (GSPT1)	Dmax (GSPT1)	SMILES	Emax (Phospho-Rb (Ser807/811))
221 nM	118 nM	109%	>118	> 14000 nM	22%	COc1c(COC(=O)Nc2ccc(Oc3ccc(F)c(C)c3)cc2F)ccc2c1C(=O)N(C1CCC(=O)NC1=O)C2 (centres unmarked) [Example 99, [2-(2,6-dioxopiperidin-3-yl)-4-methoxy-3-oxo-2,3-dihydro-1H-isoindol-5-yl]methyl N-[2-fluoro-4-(4-fluoro-3-methylphenoxy)phenyl]carbamate]	114%
428 nM	97 nM	106%	>145	> 14000 nM	32%	COc1c(COC(=O)Nc2ccc(Oc3cccc(Cl)c3)cc2F)ccc2c1C(=O)N(C1CCC(=O)NC1=O)C2 (centres unmarked) [Example 26, [2-(2,6-dioxopiperidin-3-yl)-4-methoxy-3-oxo-2,3-dihydro-1H-isoindol-5-yl]methyl N-[4-(3-chlorophenoxy)-2-fluorophenyl]carbamate]	96%
1180 nM	93 nM	104%	>151	> 14000 nM	30%	COc1c(COC(=O)Nc2ccc(Oc3cccc(F)c3)cc2Cl)ccc2c1C(=O)N(C1CCC(=O)NC1=O)C2 (centres unmarked) [Example 27, [2-(2,6-dioxopiperidin-3-yl)-4-methoxy-3-oxo-2,3-dihydro-1H-isoindol-5-yl]methyl N-[2-chloro-4-(3-fluorophenoxy)phenyl]carbamate]	86%
77 nM	194 nM	107%	>72	> 14000 nM	19%	COc1cc(Oc2cc(F)c(F)cc2F)ccc1NC(=O)OCc1ccc2c(c1OC)C(=O)N(C1CCC(=O)NC1=O)C2 (centres unmarked) [Example 34, [2-(2,6-dioxopiperidin-3-yl)-4-methoxy-3-oxo-2,3-dihydro-1H-isoindol-5-yl]methyl N-[2-methoxy-4-(2,4,5-trifluorophenoxy)phenyl]carbamate]	122%
503 nM	184 nM	104%	>76	> 14000 nM	19%	O=C1CCC(N2Cc3ccc(COC(=O)Nc4ccc(Oc5ccccc5)cc4)c(OC(F)F)c3C2=O)C(=O)N1 (centres unmarked) [Example 60, [4-(difluoromethoxy)-2-(2,6-dioxopiperidin-3-yl)-3-oxo-2,3-dihydro-1H-isoindol-5-yl]methyl N-(4-phenoxyphenyl)carbamate]	109%
37 nM	57 nM	111%	>247	> 14000 nM	9%	O=C1CCC(N2Cc3ccc(COC(=O)Nc4ccc(Oc5ccc(F)cc5F)cc4)c(O[C@@H]4CCCOC4)c3C2=O)C(=O)N1 (stereo partly drawn) [Example 145, [2-(2,6-dioxopiperidin-3-yl)-4-[(3R)-oxan-3-yloxy]-3-oxo-2,3-dihydro-1H-isoindol-5-yl]methyl N-[4-(2,4-difluorophenoxy)phenyl]carbamate]	145%
272 nM	312 nM	102%	>45	> 14000 nM	27%	COc1cc(Oc2cc(F)c(F)cc2C)ccc1NC(=O)OCc1ccc2c(c1OC)C(=O)N(C1CCC(=O)NC1=O)C2 (centres unmarked) [Example 73, [2-(2,6-dioxopiperidin-3-yl)-4-methoxy-3-oxo-2,3-dihydro-1H-isoindol-5-yl]methyl N-[4-(4,5-difluoro-2-methylphenoxy)-2-methoxyphenyl]carbamate]	118%
144 nM	112 nM	99%	>125	> 14000 nM	10%	O=C1CCC(N2Cc3ccc(COC(=O)Nc4ccc(Oc5ccc(F)cc5F)cc4)c(Oc4ccccc4)c3C2=O)C(=O)N1 (centres unmarked) [Example 67, [2-(2,6-dioxopiperidin-3-yl)-3-oxo-4-phenoxy-2,3-dihydro-1H-isoindol-5-yl]methyl N-[4-(2,4-difluorophenoxy)phenyl]carbamate]	127%
27 nM	67 nM	105%	>210	> 14000 nM	8%	O=C1CCC(N2Cc3ccc(COC(=O)Nc4ccc(Oc5ccc(F)cc5F)cc4)c(OC4CCOCC4)c3C2=O)C(=O)N1 (centres unmarked) [Example 139, [2-(2,6-dioxopiperidin-3-yl)-4-(oxan-4-yloxy)-3-oxo-2,3-dihydro-1H-isoindol-5-yl]methyl N-[4-(2,4-difluorophenoxy)phenyl]carbamate]	170%

Second part, the compound before the results:

SMILES	IC50 (Phospho-Rb (Ser807/811))	DC50 (Cyclin E1)	Dmax (Cyclin E1)	Ratio of GSPT1 DC50/Cyclin E1 DC50 (Cyclin E1)	DC50 (GSPT1)	Dmax (GSPT1)	Emax (Phospho-Rb (Ser807/811))
COc1c(COC(=O)Nc2ccc(Oc3ccc(F)cc3C)cc2)ccc2c1C(=O)N(C1CCC(=O)NC1=O)C2 (centres unmarked) [Example 81, [2-(2,6-dioxopiperidin-3-yl)-4-methoxy-3-oxo-2,3-dihydro-1H-isoindol-5-yl]methyl N-[4-(4-fluoro-2-methylphenoxy)phenyl]carbamate]	64 nM	92 nM	110%	>152	> 14000 nM	37%	103%
COc1c(COC(=O)Nc2ccc(Oc3cccc(C)c3)cc2)ccc2c1C(=O)N(C1CCC(=O)NC1=O)C2 (centres unmarked) [Example 11, [2-(2,6-dioxopiperidin-3-yl)-4-methoxy-3-oxo-2,3-dihydro-1H-isoindol-5-yl]methyl N-[4-(3-methylphenoxy)phenyl]carbamate]	356 nM	61 nM	112%	>228	> 14000 nM	33%	98%
O=C1CCC(N2Cc3ccc(COC(=O)Nc4ccc(Oc5ccccc5Cl)cc4)c(OC4CCOCC4)c3C2=O)C(=O)N1 (centres unmarked) [Example 131, [2-(2,6-dioxopiperidin-3-yl)-4-(oxan-4-yloxy)-3-oxo-2,3-dihydro-1H-isoindol-5-yl]methyl N-[4-(2-chlorophenoxy)phenyl]carbamate]	28 nM	31 nM	102%	>450	> 14000 nM	0%	129%
COc1cc(Oc2cc(F)c(F)c(F)c2)ccc1NC(=O)OCc1ccc2c(c1OC)C(=O)N(C1CCC(=O)NC1=O)C2 (centres unmarked) [Example 72, [2-(2,6-dioxopiperidin-3-yl)-4-methoxy-3-oxo-2,3-dihydro-1H-isoindol-5-yl]methyl N-[2-methoxy-4-(3,4,5-trifluorophenoxy)phenyl]carbamate]	364 nM	394 nM	103%	>36	> 14000 nM	5%	120%
COc1c(COC(=O)Nc2ccc(Oc3ccccc3Cl)cc2)ccc2c1C(=O)N(C1CCC(=O)NC1=O)C2 (centres unmarked) [Example 80, [2-(2,6-dioxopiperidin-3-yl)-4-methoxy-3-oxo-2,3-dihydro-1H-isoindol-5-yl]methyl N-[4-(2-chlorophenoxy)phenyl]carbamate]	73 nM	181 nM	115%	>77	> 14000 nM	40%	119%
O=C1CCC(N2Cc3ccc(COC(=O)Nc4ccc(Oc5ccc(F)c(F)c5)cc4)c(O[C@H]4CC[C@H](O)CC4)c3C2=O)C(=O)N1 (stereo partly drawn) [Example 166, [2-(2,6-dioxopiperidin-3-yl)-3-oxo-4-{[(1R,4R)-4-hydroxycyclohexyl]oxy}-2,3-dihydro-1H-isoindol-5-yl]methyl N-[4-(3,4-difluorophenoxy)phenyl]carbamate]	95 nM	87 nM	108%	>160	> 14000 nM	27%	134%
COc1cc(F)c(F)cc1Oc1ccc(NC(=O)OCc2ccc3c(c2OC)C(=O)N(C2CCC(=O)NC2=O)C3)c(C)c1 (centres unmarked) [Example 33, [2-(2,6-dioxopiperidin-3-yl)-4-methoxy-3-oxo-2,3-dihydro-1H-isoindol-5-yl]methyl N-[4-(4,5-difluoro-2-methoxyphenoxy)-2-methylphenyl]carbamate]	809 nM	1630 nM	85%	>9	> 14000 nM	8%	87%
COc1c(COC(=O)Nc2ccc(Oc3ccc(Cl)c(F)c3)cc2)ccc2c1C(=O)N(C1CCC(=O)NC1=O)C2 (centres unmarked) [Example 71, [2-(2,6-dioxopiperidin-3-yl)-4-methoxy-3-oxo-2,3-dihydro-1H-isoindol-5-yl]methyl N-[4-(4-chloro-3-fluorophenoxy)phenyl]carbamate]	234 nM	241 nM	105%	>58	> 14000 nM	27%	97%

— patent US20250084056A1, “SUBSTITUTED OXOISOINDOLINYL PIPERIDINE-2,6-DIONE COMPOUNDS” (BRISTOL-MYERS SQUIBB COMPANY, priority 2023, published 2025)
